Consider 13 molecules from article PMC9788182, “Natural Compounds as Non-Nucleoside Inhibitors of Zika Virus Polymerase through Integration of In Silico and In Vitro Approaches” (Pharmaceuticals, 2022).

In one data set the target is ZIKV NS5 RdRp (Zika virus, UniProt Q32ZE1). The data set is described as follows: ZIKV NS5-RdRp activity assays (endpoint and concentration-response). The data set is classed as biochemical. Conditions: for inhibition at 20 µM: endpoint assay at 20 µM, read-out: inhibitory activity against ZIKV RdRp. How it is done: Nine prioritized hits were submitted to endpoint assay at 20 µM to verify their inhibitory activity against ZIKV RdRp. […] Pedalitin and quercetin were the only ones with activity greater than 80%, with inhibitory activity of 97% and 99%, respectively, and consequently were selected for the concentration-response assays.
Sequence of ZIKV NS5 RdRp (Q32ZE1 2822-3419): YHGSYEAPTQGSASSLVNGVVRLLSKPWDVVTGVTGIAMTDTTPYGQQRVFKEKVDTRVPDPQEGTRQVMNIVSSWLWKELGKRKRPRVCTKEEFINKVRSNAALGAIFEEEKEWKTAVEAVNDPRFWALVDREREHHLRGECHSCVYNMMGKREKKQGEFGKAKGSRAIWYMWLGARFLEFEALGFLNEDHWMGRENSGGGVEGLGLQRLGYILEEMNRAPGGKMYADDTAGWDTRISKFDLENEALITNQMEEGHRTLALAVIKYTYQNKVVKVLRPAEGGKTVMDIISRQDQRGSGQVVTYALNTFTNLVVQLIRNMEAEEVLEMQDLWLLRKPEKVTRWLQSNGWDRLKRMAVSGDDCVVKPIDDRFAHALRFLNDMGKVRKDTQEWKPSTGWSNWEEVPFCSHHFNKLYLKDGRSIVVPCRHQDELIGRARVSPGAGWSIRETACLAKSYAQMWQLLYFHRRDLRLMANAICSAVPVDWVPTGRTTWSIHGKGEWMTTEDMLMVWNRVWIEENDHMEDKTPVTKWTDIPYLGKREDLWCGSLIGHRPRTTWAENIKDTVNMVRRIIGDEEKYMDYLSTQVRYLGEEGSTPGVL
We then investigated ZIKV RdRp activity in the presence of pedalitin and quercetin.
ZIKV NS5-RdRp activity assays were performed as described by Fernandes and coworkers. The endpoint assays were performed at 20 μM, and the compounds that inhibited more than 80% of activity in this assay were submitted to a concentration-response test. The concentration-responses assays were performed as described in [94]. In all cases, the percentage inhibition values were calculated based on a control reaction, containing only DMSO in the same concentrations used for the tested compounds. The results were analyzed and plotted using the GraphPad Prism v. 8.0 program.

A short description of the next data set: Cell viability, MTT. The class given is cell-based. The following applies: African green monkey, Vero cells. How it is done:
Cell viability was measured by the MTT [3-(4,5-dimethylthiazol-2-yl)-2,5-diphenyl tetrazolium bromide] (Sigma–Aldrich) method. Vero cells were seeded in a 96-well plate at a density of 5 × 10^3 cells per well and incubated overnight at 37 °C in a humidified 5% CO2 incubator. A drug-containing medium at concentrations ranging from 200 to 0.005 µM was added to the cell culture. After 72 h at 37 °C, the media was removed and a solution containing MTT at the final concentration of 1 mg/mL was added to each well and incubated for 30 min at 37 °C in a humidified 5% CO2 incubator, after which media was replaced with 100 μL of DMSO to solubilize the formazan crystals. Absorbance was measured by the optical density (OD) of each well at 490 nm, using a spectrophotometer. Cell viability was calculated according to the equation (T/C) × 100%, where T and C represent the mean optical density of the treated group and vehicle control group, respectively. […] 8 [95].

For another data set, the system named is ZIKV^BR. The data set is described as follows: Antiviral assay, Vero cells infected with ZIKV^BR, foci by immunofluorescence. The class given is cell-based, Zika virus. The following applies: for SI (selectivity index): SI = CC50/EC50, Vero cells; for EC50: Zika virus, read-out: EC50 ZIKV. How it is done: The anti-ZIKV activities of the pedalitin and quercetin were further investigated through the employment of Vero cells infected with ZIKV wild type (ZIKV^BR) (Figure 6). […] Vero cells were infected with ZIKV^BR and simultaneously treated with pedalitin or quercetin at concentrations ranging from 200 µM to 0.005 µM for 72 h when viral replication rates were assessed (Figure 6). Cell viability analysis was performed in parallel (Figure 6).
Vero cells were seeded at density of 5 × 10^3 cells per well into 96-well plates 24 h prior to the infection. ZIKV-WT^BR at a multiplicity of infection (MOI) of 0.1 and compound at concentrations ranging from 200 to 0.005 µM were simultaneously added to cells. 72 h post-infection (h.p.i.), cells were fixed with paraformaldehyde 4%, washed with PBS and blocking buffer (BB) containing: 0.1% Triton X-100 (Vetec Labs, PR, BR), 0.2% bovine albumin (BSA) and PBS for 30 min. Then, cells were incubated with primary rabbit polyclonal anti-NS3 antibody diluted in BB for 1 h. Alexa Fluor 488 conjugated anti-rabbit IgG was used as secondary antibody (Abcam, Cambridge, UK). Images were analyzed by EVO cell imaging systems fluorescence microscopy (Thermo Fisher Scientific, OH, USA) and foci of infection were counted. The antiviral activity was calculated according to the equation (T/C) × 100%, where T and C represent the mean of the treated group and mean of the […], respectively. […] 8. The values of CC50 and EC50 were used to calculate the selectivity index (SI = CC50/EC50).

Another data set relates to DENV-2 virus. On the set-up: method as in PMID 22201648. Conditions: Vero cells, cited from earlier work.
The next data set has as its system SARS-CoV-2 RdRp. On the set-up: method as in PMID 35732785. Conditions: cited from earlier work.
For another data set, the system named is DENV RdRP. Conditions: ref 31 (10), ref 21 (11), ref 30 (12); cited from earlier work.
The next data set relates to DENV3 RdRP. On the set-up: method as in earlier work. The following applies: ref 49 (13), ref 8 (14), ref 24 (15); cited from earlier work.
The test system of the next data set is DENV1 RdRP. On the set-up: method as in earlier work. The following applies: ref 49 (13), ref 8 (14), ref 24 (15); cited from earlier work.
The subject of another data set is DENV2 RdRP. On the set-up: method as in earlier work. Conditions: ref 49 (13), ref 8 (14), ref 24 (15); cited from earlier work.
The subject of a further data set is DENV4 RdRP. On the set-up: method as in earlier work. Conditions: ref 49 (13), ref 8 (14), ref 24 (15); cited from earlier work.
Data set [1] has as its system ZIKV RdRp. On the set-up: method as in PMID 31310806. Conditions: cited from earlier work.
For another data set, the system named is DENV-2. On the set-up: method as in PMID 34126315, PMID 24965553. The following applies: read-out: DENV2 EC50; cited from earlier work.
The test system of another data set is ZIKV. On the set-up: method as in PMID 30392049. The following applies: Vero cells; cited from earlier work.
Data set [2] deals with Japanese encephalitis virus (JEV). Conditions: cited from earlier work.
Data set [3] concerns ZIKV RdRp. On the set-up: method as in PMID 28098253. The following applies: cited from earlier work.

Read-outs that look alike come from different tables or passages of the source.

For `COc1cc2oc(-c3ccc(O)c(O)c3)cc(=O)c2c(O)c1O` [Compound 8, Pedalitin], at ZIKV NS5 RdRp, it took 4.1 ± 0.3 µM to reach half-maximal inhibition (IC50) and the inhibition at 20 µM came out at 97%. In addition, in the data set “Cell viability, MTT”, the midpoint of cytotoxicity, the CC50 at 72 h, lay at 83.7 µM. Besides, the “SI (selectivity index)” value in the data set on ZIKV^BR is recorded as 4.34. Further, the EC50 (commonly the midpoint of the concentration-response curve) with ZIKV^BR (Vero, 72 h) was 19.3 µM.
For `O=c1c(O)c(-c2ccc(O)c(O)c2)oc2cc(O)cc(O)c12` [Compound 9, Quercetin], the IC50 (as a rule, the point on the concentration scale where inhibition reaches its midpoint) on ZIKV NS5 RdRp (concentration-response, 80 µM to 0.156 µM, read-out: IC50 ZIKV RdRp) is 0.5 ± 0.1 µM; in the data set on SARS-CoV-2 RdRp, 6.9 µM. For the same molecule, the inhibition at 20 µM on ZIKV NS5 RdRp is 99%. In “Cell viability, MTT”, it took 36 µM to reach half-maximal cytotoxicity (CC50 at 72 h). Also, the EC50 in the data set with DENV-2 virus (administration after viral adsorption) was 95.6 µM; in the data set on ZIKV^BR (Vero cells, ZIKV^BR MOI 0.1, 72 h, 200 to 0.005 µM) it was 17.7 µM. The “reduction of DENV-2 replication” value in the data set on DENV-2 virus (concentration of 165.4 µM) is 67%. Further, the “SI (selectivity index)” value with ZIKV^BR was determined as 2.03.
Take `O=C(O)CCCC(/C=C/c1ccccc1)c1c(O)c(C(CCCC(=O)O)CCc2ccccc2)c(O)c2c(=O)cc(-c3ccccc3)oc12` (stereo not drawn) [Compound 11, chartaceone D]: the IC50 with DENV RdRP was 1.8 ± 1.2 µM.
As for `COc1cc(O)c2c(=O)c(O)c(-c3ccc(O)c(O)c3)oc2c1` [Compound 12, rhamnetin], the IC50 in the data set with DENV RdRP is 2.2 ± 0.2 µM.
Consider `O=C(Cc1ccccc1Nc1c(Cl)cccc1Cl)NC1(C(=O)O)Cc2ccccc2C1` [Compound 13, bis-chloro-diphenylamine, 2-aminoindan-2-carboxyl derivative], for which the IC50 in the data set on DENV3 RdRP is 12.8 ± 1.3 µM; in the data set with DENV1 RdRP, 6.6 ± 1.3 µM; with DENV2 RdRP, 16.5 ± 1.8 µM; in the data set on DENV4 RdRP it was 6.1 ± 1 µM.
As for `COc1cccc(S(=O)(=O)NC(=O)c2cc(-c3ccc(C#CCO)s3)c(OC)cc2OC)c1` [Compound 14, 5-(5-(3-Hydroxyprop-1-yn-1-yl)thiophen-2-yl)-2,4-dimethoxy-N-((3-methoxyphenyl)sulfonyl)benzamide], the IC50 was 0.048 µM in the data set with DENV3 RdRP, 0.068 µM in the data set on DENV1 RdRP, 0.106 µM in the data set on DENV2 RdRP and 0.172 ± 0.097 µM with DENV4 RdRP.
Consider `COc1cc(C)c(C(=O)NS(=O)(=O)c2cccc3cccnc23)cc1-c1ccc(C#CCO)s1` [Compound 15, 5-(5-(3-Hydroxyprop-1-yn-1-yl)thiophen-2-yl)-4-methoxy-2-methyl-N-(quinolin-8-ylsulfonyl)benzamide], for which the IC50 in the data set with DENV3 RdRP is 0.016 µM; with DENV1 RdRP, 0.013 µM; in the data set with DENV2 RdRP, 0.038 µM; with DENV4 RdRP it was 0.023 ± 0.01 µM.
With `C=CCCCCCCCCC(=O)O` [Compound 17, undecylenic acid], in the data set with ZIKV RdRp [1], the EC50 is 7.43 µM.
With `O=c1cc(-c2ccccc2)oc2cc(O)c(O)c(O)c12` [Compound 18, baicalein], the figures for the EC50 (with DENV-2; in the data set on ZIKV; in [2]) were 55.1 µM, 0.004 µM and 27 ± 4 µM, respectively. Besides, in data set [2] (Figure 4), the “JEV ED50” value is 27 µM.
As to `O=C(O)[C@H]1O[C@@H](Oc2cc3oc(-c4ccccc4)cc(=O)c3c(O)c2O)[C@H](O)[C@@H](O)[C@@H]1O` [Compound 19, baicalin], the EC50 in the data set with ZIKV was 14 µM.
Regarding `CC(C)OC(=O)[C@H](C)N[P@](=O)(OC[C@H]1O[C@@H](n2ccc(=O)[nH]c2=O)[C@](C)(F)[C@@H]1O)Oc1ccccc1` [Sofosbuvir, sofosbuvir], in the data set with ZIKV RdRp [3], the IC50 is 0.38 ± 0.03 µM.
Regarding `O=c1cc(-c2ccc(O)c(O)c2)oc2cc(O)cc(O)c12` [luteolin], the IC50 in the data set with SARS-CoV-2 RdRp is 4.6 µM.
Take podocarpusflavone A [Compound 10]: the IC50 in the data set on DENV RdRP was 0.16 ± 0.02 µM.
